From patent publication US20250222146A1, “Radiopharmaceuticals Targeting Somatostatin Receptor 2 and Uses Thereof” (RayzeBio, Inc., priority 2023, published 2025)
Numbered stars: 1 amine (or outer) side, 2 acyl side, 3 side chain; on linkers, the order of the positions; unused ones are H or OH. Square brackets hold non-standard residues; d marks the D form. Side chains are listed from the residue outwards. Peptide text beside a SMILES is read from it. * marks the point of attachment. X10 = O=C(CN1CCN2CCN3CCN(CC1)CC(=O)[O][Lu]([O]C(=O)C2)[O]C(=O)C3)NCC12CCC(C(=O)*)(CC1)CC2; X14 = O=C(CN1CCN2CCN3CCN(CC1)CC(=O)[O][Lu]([O]C(=O)C2)[O]C(=O)C3)NCC1CCC(C(=O)*)CC1; X24 = O=C1CN2CCN3CCN(CC(=O)N4CC(CC(=O)*)C4)CCN(CC2)CC(=O)[O][Lu]([O]1)[O]C(=O)C3; DOTA(Lu) = O=C1CN2CCN3CCN(CC(=O)*)CCN(CC2)CC(=O)[O][Lu]([O]1)[O]C(=O)C3; X7 = O=C1CN2CCN3CCN(CC2)[C@H](CCC(=O)*)C(=O)[O][Ga]([O]1)[O]C(=O)C3; Ala(piperidin-4-yl) = O=C([C@H](CC1CCN([*:3])CC1)N[*:1])[*:2]; dTrp(βS-Me) = C[C@@H](c1c[nH]c2ccccc12)[C@@H](N)C(=O)O; X11 = O=C1CN2CCN(CCN(CC(=O)*)CC2)CC(=O)[O][Ga+][O]1; X8 = O=C([C@@H](Cc1n[nH]c2ccccc12)N[*:1])[*:2]; NMeLys(Me) = CNCCCC[C@H](NC)C(=O)O; Trx = NC[C@H]1CC[C@H](C(=O)O)CC1; NMeK = CN[C@@H](CCCCN)C(=O)O

The compounds below were run against SSTR2 (Homo sapiens, UniProt P30874) (assay: SSTR binding affinity by radioligand binding competition assay ([125I]-Tyr11-Somatostatin, membrane extracts)). Conditions: radioligand competition, [125I]-Tyr11-Somatostatin 0.1 nM, membrane extracts; Ki from IC50 by Cheng Prusoff; read-out: SSTR2 Ki.
Chain of SSTR2 (P30874 whole entry): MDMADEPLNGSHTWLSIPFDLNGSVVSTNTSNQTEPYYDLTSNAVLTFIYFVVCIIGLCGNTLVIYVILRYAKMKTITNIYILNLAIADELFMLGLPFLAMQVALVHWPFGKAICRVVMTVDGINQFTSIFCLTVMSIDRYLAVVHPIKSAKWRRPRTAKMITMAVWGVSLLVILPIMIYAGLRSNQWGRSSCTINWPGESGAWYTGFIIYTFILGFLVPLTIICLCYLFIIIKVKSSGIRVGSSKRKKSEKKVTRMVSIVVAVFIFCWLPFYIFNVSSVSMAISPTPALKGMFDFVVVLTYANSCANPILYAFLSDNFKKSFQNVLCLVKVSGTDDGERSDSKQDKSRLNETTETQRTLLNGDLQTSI

SMILES	Ki
C[C@@H](O)[C@@H]1NC(=O)[C@H](CC2CCNCC2)NC(=O)[C@@H]([C@@H](C)c2c[nH]c3ccccc23)NC(=O)[C@H](Cc2ccc(O)cc2)NC(=O)[C@H](CCCCNC(=O)CC2CN(C(=O)CN3CCN4CCN5CCN(CC3)CC(=O)[O][Lu]([O]C(=O)C5)[O]C(=O)C4)C2)N(C)C(=O)[C@H](Cc2ccccc2)NC1=O [RB-0006461] (cyclo(F[NMeK](X24)Y[dTrp(βS-Me)][Ala(piperidin-4-yl)]T))	3.33 to 10 nM
C[C@@H](O)[C@@H]1NC(=O)[C@H](CC2CCNCC2)NC(=O)[C@@H]([C@@H](C)c2c[nH]c3ccccc23)NC(=O)[C@H](Cc2ccc(O)cc2)NC(=O)[C@H](CCCCNC(=O)C2CCC(CNC(=O)CN3CCN4CCN5CCN(CC3)CC(=O)[O][Lu]([O]C(=O)C4)[O]C(=O)C5)CC2)N(C)C(=O)[C@H](Cc2ccccc2)NC1=O (stereo partly drawn) [RB-0006464] (cyclo(F[NMeK](X14)Y[dTrp(βS-Me)][Ala(piperidin-4-yl)]T))	1 to 3.33 nM
C[C@@H](O)[C@@H]1NC(=O)[C@H](CC2CCNCC2)NC(=O)[C@@H]([C@@H](C)c2c[nH]c3ccccc23)NC(=O)[C@H](Cc2ccc(O)cc2)NC(=O)[C@H](CCCCNC(=O)[C@H]2CC[C@H](CNC(=O)CC[C@@H]3C(=O)[O][Ga]4[O]C(=O)CN5CCN(CCN3CC5)CC(=O)[O]4)CC2)N(C)C(=O)[C@H](Cc2ccccc2)NC1=O [RB-0006470] (cyclo(F[NMeK]([Trx-X7])Y[dTrp(βS-Me)][Ala(piperidin-4-yl)]T))	1 to 3.33 nM
C[C@@H](O)[C@@H]1NC(=O)[C@H](CC2CCNCC2)NC(=O)[C@@H]([C@@H](C)c2c[nH]c3ccccc23)NC(=O)[C@H](Cc2ccc(O)cc2)NC(=O)[C@H](CCCCNC(=O)CCC2C(=O)[O][Ga]3[O]C(=O)CN4CCN(CCN2CC4)CC(=O)[O]3)N(C)C(=O)[C@H](Cc2ccccc2)NC1=O (stereo partly drawn) [RB-0006476]	3.33 to 10 nM
C[C@@H](O)[C@@H]1NC(=O)[C@H](CC2CCNCC2)NC(=O)[C@@H]([C@@H](C)c2c[nH]c3ccccc23)NC(=O)[C@H](Cc2ccc(O)cc2)NC(=O)[C@H](CCCCNC(=O)CN2CCN3CCN(CC2)CC(=O)[O][Ga+][O]C(=O)C3)N(C)C(=O)[C@H](Cc2ccccc2)NC1=O [RB-0006488] (cyclo(F[NMeK](X11)Y[dTrp(βS-Me)][Ala(piperidin-4-yl)]T))	1 to 3.33 nM
C[C@@H](O)[C@@H]1NC(=O)[C@H](CC2CCNCC2)NC(=O)[C@@H](Cc2n[nH]c3ccccc23)NC(=O)[C@H](Cc2ccc(O)cc2)NC(=O)[C@H](CCCCNC(=O)CN2CCN3CCN4CCN(CC2)CC(=O)[O][Lu]([O]C(=O)C3)[O]C(=O)C4)N(C)C(=O)[C@H](Cc2ccccc2)NC1=O [RB-0006553] (cyclo(F[NMeK](DOTA(Lu))Y[X8][Ala(piperidin-4-yl)]T))	10 to 33.3 nM
C[C@@H](O)[C@@H]1NC(=O)[C@H](CC2CCNCC2)NC(=O)[C@@H]([C@@H](C)c2c[nH]c3ccccc23)NC(=O)[C@H](Cc2ccc(O)cc2)NC(=O)[C@H](CCCCNC(=O)C23CCC(CNC(=O)CN4CCN5CCN6CCN(CC4)CC(=O)[O][Lu]([O]C(=O)C5)[O]C(=O)C6)(CC2)CC3)N(C)C(=O)[C@H](Cc2ccccc2)NC1=O [RB-0006558] (cyclo(F[NMeK](X10)Y[dTrp(βS-Me)][Ala(piperidin-4-yl)]T))	< 1 nM
C[C@@H](O)[C@@H]1NC(=O)[C@H](CC2CCNCC2)NC(=O)[C@@H]([C@@H](C)c2c[nH]c3ccccc23)NC(=O)[C@H](Cc2ccc(O)cc2)NC(=O)[C@H](CCCCN(C)C(=O)CN2CCN3CCN4CCN(CC2)CC(=O)[O][Lu]([O]C(=O)C4)[O]C(=O)C3)N(C)C(=O)[C@H](Cc2ccccc2)NC1=O [RB-0006579] (cyclo(F[NMeLys(Me)](DOTA(Lu))Y[dTrp(βS-Me)][Ala(piperidin-4-yl)]T))	3.33 to 10 nM
C[C@@H](O)[C@@H]1NC(=O)[C@H](CC2CCNCC2)NC(=O)[C@@H]([C@@H](C)c2c[nH]c3ccccc23)NC(=O)[C@H](Cc2ccc(O)cc2)NC(=O)[C@H](CCCCn2cc(CNC(=O)CN3CCN4CCN5CCN(CC3)CC(=O)[O][Lu]([O]C(=O)C4)[O]C(=O)C5)nn2)N(C)C(=O)[C@H](Cc2ccccc2)NC1=O [RB-0006591]	3.33 to 10 nM
